Consider 1 compound from paper PMC11926788, “Effect of SSR504734, a Selective Glycine Transporter Type 1 Inhibitor, on Seizure Thresholds, Neurotransmitter Levels, and Inflammatory Markers in Mice” (ACS Chemical Neuroscience, 2025).

Each structure is given as a SMILES string. Where a name gives a salt, the structure may show the parent alone.

Series [1] relates to 6 Hz-induced psychomotor seizures in mice. As to the kind of experiment: 6 Hz-induced psychomotor seizure threshold test. The format is in vivo. The note with it: SSR504734 any of the doses tested, VPA 150 mg/kg. The method, then:
Psychomotor seizures were induced through the application of rectangular pulses (0.2 ms width; 6 pulses per second) for 3 s using a Grass model CCU1 constant current unit coupled to a Grass S48 stimulator (Grass Technologies, Warwick, RI, USA). Stimuli were delivered via saline-soaked transcorneal electrodes. An ocular anesthetic (1% tetracaine hydrochloride) was administered on the animal’s corneas. Mice were restrained manually during stimulation and placed in transparent box immediately for behavioral observation. 6 Hz-induced seizures were characterized by head-nodding, chewing, eye-blinking, twitching of the vibrissae, rearing, stunned posture, forelimb clonus, and Straub tail. The absence of the described features or the return to normal exploratory behavior within 20 s poststimulation was considered as the absence of seizures. The 6 Hz seizure threshold test were conducted on groups of 20 animals stimulated with different current intensities by using the “up-and-down” method described by Kimball et al.[28]
The seizure threshold was quantified as the median current strength (CS50 value with confidence limits for 95% probability), predicting the induction of psychomotor seizures in 50% of the tested animals.

Series [2] deals with TNFα, IL-6, IL-1β, TLR4, IL-10, IFN-γ, IL-18 in serum. The series is described as follows: Inflammatory markers in serum (ELISA). The format is in vivo, mice. The note with it: 14-day administration, 30 mg/kg i.p. The method, then: ELISA kits were used to determine IL-1-β, IL-6, IL-10, TNF-α, and IFN-γ (EIAAB Science INC, Wuhan, Hubei, China, nos. E0563m, E0079m, E0056m, E0049m, E0133m, E0753m) and IL-18 (Biorbyt Ltd., Cambridge, United Kingdom, no. orb437211) in the liver homogenates and serum. All assays were performed according to the producer’s instructions. All samples were tested in triplicate.
For orientation: An ELISA detects its analyte on a solid surface through an enzyme-linked reagent.

A short description of series [3]: Neurotoxicity, SH-SY5Y cell viability. Type of series: cell-based. The following applies: human, neuroblastoma SH-SY5Y cells; 50 μM, 72 h. Here is the method:
(§1) A series of in vitro ADME-Tox tests were performed for SSR504734 in order to estimate its drugability. The ADME-Tox parameters including permeability, plasma protein binding, metabolic stability, neurotoxicity, and hepatotoxicity were carried out as described previously.[31],[32] The ability of SSR504734 to penetrate through the biological membrane by passive diffusion was estimated by the Gentest Precoated PAMPA Plate System (Corning, Tewksbury, MA) and expressed as the permeability coefficient (Pe). The protein binding analysis was performed by using the commercial TRANSIL^XL PPB test, which mimics in vitro physiological plasma conditions where human serum albumin (HAS) and alpha-1-acid glycoprotein AGP are present in a 24:1 ratio. The human metabolism of SSR504734 was studied using human liver microsomes (HLMs) provided by Sigma-Aldrich. The hepatotoxicity and neurotoxicity were estimated in cellular models with the use of hepatoma HepG2 and neuroblastoma SH-SY5Y cell lines to perform the preliminary safety tests. The cells were incubated with SSR504734 at the concentration range of 0.1–100 μM. 1 μM cytostatic drug doxorubicin (DX) was used as the reference.
(§2) Figure 8 Effect of cytostatic drug doxorubicin (DX) and SSR504734 on (A) hepatoma HepG2 and (B) neuroblastoma SH-SY5Y cell lines viability after 72 h of incubation at 37 °C, 5% CO2. Data are expressed as means ± SD. Statistical analysis: ****p < 0.0001 vs negative control −1% DMSO in growth media (one-way ANOVA, followed by Dunnett’s post hoc test).
(§3) Figure S8. The effect of cytostatic drug doxorubicin and SSR504734 on (A) hepatoma
(§4) HepG2 and (B) neuroblastoma SH-SY5Y cell line viability after 72 h of incubation at 37 °C,
(§5) 5% CO2. The IC50 values were calculated by GraphPad Prism 8.0.
(§6) (1 picture or pasted object on this page, not shown here)

For series [4], the system named is hepatoma HepG2 cells. As to the kind of experiment: Hepatotoxicity, HepG2 cell viability. The format is cell-based. The method, then:
as §1, §2, §3, §4, §5, §6

With `O=C(NC(c1ccccc1)C1CCCCN1)c1cccc(C(F)(F)F)c1Cl` [SSR504734, 2-chloro-N-[(S)-phenyl[(2S)-piperidin-2-yl]methyl]-3-trifluoromethyl benzamide monohydrochloride], the “effect on current intensity necessary to induce psychomotor seizures” value in series [1] (14-day administration i.p.) is reported as “no statistically significant effect”. In series [1] (single administration i.p.), the “effect on current intensity necessary to induce psychomotor seizures” value is listed as “no statistically significant effect”. In series [2], the “serum concentration of IFN-γ” value was “no statistically significant differences”, the “serum concentration of IL-1β” value is listed as “significant increase”, the “serum concentration of IL-6” value was “significant increase” and the “serum concentration of IL-10” value is “significant increase”. Further, in series [2], the “serum concentration of IL-18” value is listed as “no statistically significant differences”, the “serum concentration of TNFα” value is “significant increase” and the “serum concentration of TRL4” value is on record as “significant increase”. Also, the viability at 72 h, 50 µM in series [3] was around 30%. The HepG2 cell viability result in series [4] (25 μM and higher concentrations, 72 h) is on record as “significant decrease”. The same compound displayed an IC50 in series [4] (Homo sapiens, HepG2, 72 h of incubation) of 14.8 µM. The “hepatotoxic properties (HepG2 viability)” value in series [4] (concentration range of 1–10 μM, 72 h) was “did not exhibit hepatotoxic properties”.

The viability is a per cent measure of how many cells are alive, often set against a control. High values mean better survival, low ones a greater loss of cells. One may read the IC50 as the concentration at which inhibition is half-maximal.
